Source: PubChem BioAssay (NCI)
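Compound exposure: 48 hours, 5 concentrations, 96-well plates. GI50 = concentration required for 50% inhibition of growth. The concentration for full growth arrest is given as TGI.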

Experiments:
Assay in all cases: DTP human tumour cell line panel, 48 h
SF-295 CNS = system: SF-295 CNS
SNB-75 CNS = system: SNB-75 CNS
786-0 renal = system: 786-0 renal
HOP-92 NSCLC = system: HOP-92 NSCLC
M14 melanoma = system: M14 melanoma
UO-31 renal = system: UO-31 renal
K-562 leukemia = system: K-562 leukemia
OVCAR-8 ovarian = system: OVCAR-8 ovarian
PC-3 prostate = system: PC-3 prostate
ACHN renal = system: ACHN renal
SN12C renal = system: SN12C renal
RXF 393 renal = system: RXF 393 renal
SK-MEL-5 melanoma = system: SK-MEL-5 melanoma
T-47D breast = system: T-47D breast
A549 NSCLC = system: A549 NSCLC
TK-10 renal = system: TK-10 renal
MALME-3M melanoma = system: MALME-3M melanoma
HCT-15 colon = system: HCT-15 colon
NCI/ADR-RES ovarian = system: NCI/ADR-RES ovarian
SK-MEL-2 melanoma = system: SK-MEL-2 melanoma
SNB-19 CNS = system: SNB-19 CNS
RPMI-8226 leukemia = system: RPMI-8226 leukemia
NCI-H23 lung = system: NCI-H23 lung
MDA-MB-231 breast = system: MDA-MB-231 breast
CCRF-CEM leukemia = system: CCRF-CEM leukemia
MOLT-4 leukemia = system: MOLT-4 leukemia
COLO 205 colon = system: COLO 205 colon
HL-60(TB) leukemia = system: HL-60(TB) leukemia
NCI-H522 lung = system: NCI-H522 lung
HCC-2998 colon = system: HCC-2998 colon
LOX IMVI melanoma = system: LOX IMVI melanoma
UACC-257 melanoma = system: UACC-257 melanoma
MCF7 breast = system: MCF7 breast
BT-549 breast = system: BT-549 breast
SF-539 CNS = system: SF-539 CNS
OVCAR-3 ovarian = system: OVCAR-3 ovarian
SW-620 colon = system: SW-620 colon
DU-145 prostate = system: DU-145 prostate
NCI-H226 lung = system: NCI-H226 lung
SK-MEL-28 melanoma = system: SK-MEL-28 melanoma
HCT-116 colon = system: HCT-116 colon
UACC-62 melanoma = system: UACC-62 melanoma
MDA-MB-435 = system: MDA-MB-435
OVCAR-5 ovarian = system: OVCAR-5 ovarian
NCI-H460 lung = system: NCI-H460 lung
A498 renal = system: A498 renal
HOP-62 NSCLC = system: HOP-62 NSCLC
CAKI-1 renal = system: CAKI-1 renal
SK-OV-3 ovarian = system: SK-OV-3 ovarian
IGROV1 ovarian = system: IGROV1 ovarian
SR leukemia = system: SR leukemia
HS 578T breast = system: HS 578T breast
KM12 colon = system: KM12 colon
SF-268 CNS = system: SF-268 CNS

**Q.** With `Cc1nc2ccc(Nc3nc(Cl)nc(Nc4ccc(F)cc4)n3)cc2n1Cc1ccccc1` as the molecule, how does the GI50 (SF-295 CNS) read?
**A.** 1.9 µM

**Q.** What about the TGI (SF-295 CNS) of the same molecule?
**A.** 4.53 µM

**Q.** What about the GI50 (SNB-75 CNS) of the same molecule?
**A.** 10.2 µM

**Q.** What about the TGI (SNB-75 CNS) of the same molecule?
**A.** 26.2 µM

**Q.** What about the GI50 (786-0 renal) of the same molecule?
**A.** 5.18 µM

**Q.** And the TGI (786-0 renal)?
**A.** 37 µM

**Q.** What about the GI50 (HOP-92 NSCLC) of the same molecule?
**A.** 2.3 µM

**Q.** What about the TGI (HOP-92 NSCLC) of the same molecule?
**A.** 9.23 µM

**Q.** What about the GI50 (M14 melanoma) of the same molecule?
**A.** 5.54 µM

**Q.** And the TGI (M14 melanoma)?
**A.** 22 µM

**Q.** What about the GI50 (UO-31 renal) of the same molecule?
**A.** 2.85 µM

**Q.** What about the TGI (UO-31 renal) of the same molecule?
**A.** 12.2 µM

**Q.** And the GI50 (K-562 leukemia)?
**A.** 3.43 µM

**Q.** What about the TGI (K-562 leukemia) of the same molecule?
**A.** > 100 µM

**Q.** And the GI50 (OVCAR-8 ovarian)?
**A.** 3.25 µM

**Q.** And the TGI (OVCAR-8 ovarian)?
**A.** 14.1 µM

**Q.** What about the GI50 (PC-3 prostate) of the same molecule?
**A.** 7.11 µM

**Q.** And the TGI (PC-3 prostate)?
**A.** 32.9 µM

**Q.** And the GI50 (ACHN renal)?
**A.** 3 µM

**Q.** And the TGI (ACHN renal)?
**A.** 10.4 µM

**Q.** What about the GI50 (SN12C renal) of the same molecule?
**A.** 5.22 µM

**Q.** What about the TGI (SN12C renal) of the same molecule?
**A.** 38.3 µM

**Q.** What about the GI50 (RXF 393 renal) of the same molecule?
**A.** 4.45 µM

**Q.** And the TGI (RXF 393 renal)?
**A.** 21.5 µM

**Q.** What about the GI50 (SK-MEL-5 melanoma) of the same molecule?
**A.** 4.19 µM

**Q.** What about the TGI (SK-MEL-5 melanoma) of the same molecule?
**A.** 15.1 µM

**Q.** And the GI50 (T-47D breast)?
**A.** 1.81 µM

**Q.** And the TGI (T-47D breast)?
**A.** 4.58 µM

**Q.** What about the GI50 (A549 NSCLC) of the same molecule?
**A.** 11.3 µM

**Q.** And the TGI (A549 NSCLC)?
**A.** 30.9 µM

**Q.** And the GI50 (TK-10 renal)?
**A.** 18.1 µM

**Q.** What about the TGI (TK-10 renal) of the same molecule?
**A.** 44.4 µM

**Q.** And the GI50 (MALME-3M melanoma)?
**A.** 11.4 µM

**Q.** What about the TGI (MALME-3M melanoma) of the same molecule?
**A.** 24.6 µM

**Q.** What about the GI50 (HCT-15 colon) of the same molecule?
**A.** 2.92 µM

**Q.** What about the TGI (HCT-15 colon) of the same molecule?
**A.** 10.4 µM

**Q.** And the GI50 (NCI/ADR-RES ovarian)?
**A.** 4.11 µM

**Q.** What about the TGI (NCI/ADR-RES ovarian) of the same molecule?
**A.** 18.5 µM

**Q.** What about the GI50 (SK-MEL-2 melanoma) of the same molecule?
**A.** 4.15 µM

**Q.** And the TGI (SK-MEL-2 melanoma)?
**A.** 15 µM

**Q.** What about the GI50 (SNB-19 CNS) of the same molecule?
**A.** 4.55 µM

**Q.** What about the TGI (SNB-19 CNS) of the same molecule?
**A.** 26.9 µM

**Q.** And the GI50 (RPMI-8226 leukemia)?
**A.** 2.05 µM

**Q.** And the TGI (RPMI-8226 leukemia)?
**A.** 5.09 µM

**Q.** And the GI50 (NCI-H23 lung)?
**A.** 7.16 µM

**Q.** And the TGI (NCI-H23 lung)?
**A.** 25.2 µM

**Q.** And the GI50 (MDA-MB-231 breast)?
**A.** 3.99 µM

**Q.** And the TGI (MDA-MB-231 breast)?
**A.** 20.4 µM

**Q.** What about the GI50 (CCRF-CEM leukemia) of the same molecule?
**A.** 3.85 µM

**Q.** What about the TGI (CCRF-CEM leukemia) of the same molecule?
**A.** > 100 µM

**Q.** What about the GI50 (MOLT-4 leukemia) of the same molecule?
**A.** 3.92 µM

**Q.** And the TGI (MOLT-4 leukemia)?
**A.** 18.1 µM

**Q.** And the GI50 (COLO 205 colon)?
**A.** 11.2 µM

**Q.** What about the TGI (COLO 205 colon) of the same molecule?
**A.** 26.5 µM

**Q.** And the GI50 (HL-60(TB) leukemia)?
**A.** 3.02 µM

**Q.** What about the TGI (HL-60(TB) leukemia) of the same molecule?
**A.** 7.6 µM

**Q.** And the GI50 (NCI-H522 lung)?
**A.** 2.51 µM

**Q.** What about the TGI (NCI-H522 lung) of the same molecule?
**A.** 6.85 µM

**Q.** What about the GI50 (HCC-2998 colon) of the same molecule?
**A.** 2.6 µM

**Q.** And the TGI (HCC-2998 colon)?
**A.** 5.96 µM

**Q.** What about the GI50 (LOX IMVI melanoma) of the same molecule?
**A.** 3.59 µM

**Q.** And the TGI (LOX IMVI melanoma)?
**A.** 14.1 µM

**Q.** And the GI50 (UACC-257 melanoma)?
**A.** 11.8 µM

**Q.** What about the TGI (UACC-257 melanoma) of the same molecule?
**A.** 28.9 µM

**Q.** And the GI50 (MCF7 breast)?
**A.** 2.71 µM

**Q.** What about the TGI (MCF7 breast) of the same molecule?
**A.** 12.4 µM

**Q.** And the GI50 (BT-549 breast)?
**A.** 4 µM

**Q.** What about the TGI (BT-549 breast) of the same molecule?
**A.** 18.8 µM

**Q.** And the GI50 (SF-539 CNS)?
**A.** 4.53 µM

**Q.** And the TGI (SF-539 CNS)?
**A.** 17.4 µM

**Q.** What about the GI50 (OVCAR-3 ovarian) of the same molecule?
**A.** 4.06 µM

**Q.** What about the TGI (OVCAR-3 ovarian) of the same molecule?
**A.** 15 µM

**Q.** And the GI50 (SW-620 colon)?
**A.** 4.95 µM

**Q.** What about the TGI (SW-620 colon) of the same molecule?
**A.** 35 µM

**Q.** And the GI50 (DU-145 prostate)?
**A.** 9.44 µM

**Q.** What about the TGI (DU-145 prostate) of the same molecule?
**A.** 22.6 µM

**Q.** What about the GI50 (NCI-H226 lung) of the same molecule?
**A.** 4.14 µM

**Q.** What about the TGI (NCI-H226 lung) of the same molecule?
**A.** 21.6 µM

**Q.** What about the GI50 (SK-MEL-28 melanoma) of the same molecule?
**A.** 3.15 µM

**Q.** And the TGI (SK-MEL-28 melanoma)?
**A.** 10.5 µM

**Q.** And the GI50 (HCT-116 colon)?
**A.** 3.56 µM

**Q.** And the TGI (HCT-116 colon)?
**A.** 13.6 µM

**Q.** What about the GI50 (UACC-62 melanoma) of the same molecule?
**A.** 3.06 µM

**Q.** And the TGI (UACC-62 melanoma)?
**A.** 12.9 µM

**Q.** And the GI50 (MDA-MB-435)?
**A.** 6.4 µM

**Q.** What about the TGI (MDA-MB-435) of the same molecule?
**A.** 23.1 µM

**Q.** And the GI50 (OVCAR-5 ovarian)?
**A.** 14.7 µM

**Q.** What about the TGI (OVCAR-5 ovarian) of the same molecule?
**A.** 44.1 µM

**Q.** And the GI50 (NCI-H460 lung)?
**A.** 4.23 µM

**Q.** What about the TGI (NCI-H460 lung) of the same molecule?
**A.** 17.8 µM

**Q.** And the GI50 (A498 renal)?
**A.** 13.2 µM

**Q.** And the TGI (A498 renal)?
**A.** 41 µM

**Q.** What about the GI50 (HOP-62 NSCLC) of the same molecule?
**A.** 10.7 µM

**Q.** What about the TGI (HOP-62 NSCLC) of the same molecule?
**A.** 30.4 µM

**Q.** What about the GI50 (CAKI-1 renal) of the same molecule?
**A.** 7.94 µM

**Q.** What about the TGI (CAKI-1 renal) of the same molecule?
**A.** 35.2 µM

**Q.** What about the GI50 (SK-OV-3 ovarian) of the same molecule?
**A.** 18.1 µM

**Q.** What about the TGI (SK-OV-3 ovarian) of the same molecule?
**A.** 66.8 µM

**Q.** What about the GI50 (IGROV1 ovarian) of the same molecule?
**A.** 4.4 µM

**Q.** And the TGI (IGROV1 ovarian)?
**A.** 20.8 µM

**Q.** And the GI50 (SR leukemia)?
**A.** 3.79 µM

**Q.** And the TGI (SR leukemia)?
**A.** 39.5 µM

**Q.** What about the GI50 (HS 578T breast) of the same molecule?
**A.** 10.9 µM

**Q.** And the TGI (HS 578T breast)?
**A.** > 100 µM

**Q.** What about the GI50 (KM12 colon) of the same molecule?
**A.** 4.25 µM

**Q.** What about the TGI (KM12 colon) of the same molecule?
**A.** 17.6 µM

**Q.** What about the GI50 (SF-268 CNS) of the same molecule?
**A.** 10.8 µM

**Q.** What about the TGI (SF-268 CNS) of the same molecule?
**A.** 46.8 µM
